Target: T1, human recombinant 5-HT6 receptors (Homo sapiens, UniProt P50406)
T1 construct: purchased Receptor Biology, Inc., Beltsville Md; 20705, USA RB-HS6; host or cells: HEK293 cells (membranes)
Experiment: Binding to human recombinant 5-HT6 receptors ([3H]-LSD displacement, HEK293 membranes)
Details: [3H]-LSD 1 nM, membranes of HEK293 cells, 1 hour at 37° C.; Ki=IC50/(1+L/KD)
Procedure: 1. Binding to Human Recombinant 5-HT6 Receptors
The binding of the compounds according to the invention to human recombinant 5-HT6 receptors can be determined as follows. Membranes of HEK293 cells which express human recombinant 5-HT6 receptors (RB-HS6, Receptor Biology, Inc., Beltsville Md. 20705, USA) were suspended in the ratio 1:40 in ice-cold sample buffer consisting of 50 mM tris HCl, 5 mM MgCl2, 0.5 mM EDTA; 0.1% ascorbic acid and 10 μM pargyline (pH 7.4) and homogenized (Polytron). 100 μl of membrane suspension, 50 μl of [^3H]-LSD (specific activity 75 Ci/mmol, final concentration […]) and 50 μl of test substance solution (8 different concentrations, 10^−5 to 10^−9 M) were incubated for 1 hour at 37° C. and the [^3H]-LSD bound to the receptor was then separated from the free [^3H]-LSD by filtration. The radioactivity retained by the filter was determined by scintillation spectroscopy. All tests were carried out in triplicate determinations. The IC50 values were calculated using the program GraphPadPrism (Hill equation, special: one-site competition). The inhibition constant of the test substance Ki was determined from the IC50 value of the compounds (concentration of the test substance at which 50% of the ligand bound to the receptor is displaced), the dissociation constant KD and the concentration L of [^3H]-LSD (Ki=IC50/(1+L/KD)).

T1 sequence (P50406 whole entry): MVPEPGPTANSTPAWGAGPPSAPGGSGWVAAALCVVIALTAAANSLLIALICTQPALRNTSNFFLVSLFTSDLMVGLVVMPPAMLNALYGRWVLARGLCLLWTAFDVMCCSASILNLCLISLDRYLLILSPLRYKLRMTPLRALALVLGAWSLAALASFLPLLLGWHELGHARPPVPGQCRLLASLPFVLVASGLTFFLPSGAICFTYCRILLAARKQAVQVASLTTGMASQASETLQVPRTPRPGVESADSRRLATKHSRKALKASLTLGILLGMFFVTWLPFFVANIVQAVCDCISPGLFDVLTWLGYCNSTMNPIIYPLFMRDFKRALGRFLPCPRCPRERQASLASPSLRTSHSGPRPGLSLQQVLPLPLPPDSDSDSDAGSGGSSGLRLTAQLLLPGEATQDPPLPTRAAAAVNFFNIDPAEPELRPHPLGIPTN

CCn1ccc2ccc(S(=O)(=O)Nc3cccc(NC(=O)C(C)(C)C)c3)cc21 [Example 44]
Ki: 12 nM
